In patent publication US8440199B2, “Methods for mobilizing mesenchymal stem cells in a patient” (Imperial Innovations Limited, priority 2007, dated 2013):

Key:
neutrophils [1] = test: Neutrophil mobilization, in situ perfusion of hind limb; conditions: VEGF (50 nM) infused acutely with CXCR4 antagonist, FIG. 24b
Description: (§5) 24 hours later these mice underwent perfusion of the right hind limb. CXCR4 antagonist (AMD3100 0.1 mM, closed bars) or vehicle (PBS, open bars) were then infused directly into the femoral artery for 10 minutes. The hind limb was then perfused for a further 50 minutes to allow collection of a, neutrophils via the femoral vein. […] The hind limb was again perfused for a further 50 minutes to allow b, collection of neutrophils. […] Data: mean±s.e.m. *: P<0.05, ***: P<0.001 between selected groups.
On day 5 following pre-treatment of growth factors, mice were anaesthetized and the femoral artery and vein exposed. The hind limb was isolated by occlusion of the external iliac artery, superficial epigastric and muscular branch. […] Perfusion buffer was infused via the arterial cannula and removed from the venous cannula using a Minipuls peristaltic pump (Anachem, Luton, UK). The hind limb was perfused for an initial 2 minutes to remove remaining blood from the vasculature and then perfused for a further 60 min with vehicle alone or the CXCR4 antagonist (AMD3100, 0.1 mM), infused over the first 10 minutes using an infusion/withdrawal pump (Harvard Instruments, U.K.).
The perfusate was centrifuged and re-suspended in DMEM+20% FBS.

HPCs [2] = test: In situ perfusion of mouse hind limb, CFU-HPC in perfusate; conditions: for HPC mobilization from the bone marrow: FIG. 21b
Description: 24 hours after the last injection, mice underwent perfusion of the right hind limb. […] The hind limb was then perfused for a further 50 minutes to allow collection of b, CFU-HPC; c, CFU-EPC; or d, CFU-SPC; via the femoral vein. CFU-HPC, CFU-EPC, and CFU-SPC are shown as total number of colonies collected in the perfusate. n=5-8 mice per group. Data: means±s.e.m. *: P<0.05, **: P<0.01, ***: P<0.001 between selected groups.
Female BALB/c mice were purchased from Harlan (Oxford, United Kingdom).
On day 5 following pre-treatment of growth factors, mice were anaesthetized and the femoral artery and vein exposed. The hind limb was isolated by occlusion of the external iliac artery, superficial epigastric and muscular branch. Polyethylene cannulae (Portex, London, UK) were immediately inserted into the femoral artery and vein as previously described (Martin et al., 2003; 2006; Wengner et al., 2008). Perfusion buffer was infused via the arterial cannula and removed from the venous cannula using a Minipuls peristaltic pump (Anachem, Luton, UK). The hind limb was perfused for an initial 2 minutes to remove remaining blood from the vasculature and then perfused for a further 60 min with vehicle alone or the CXCR4 antagonist (AMD3100, 0.1 mM), infused over the first 10 minutes using an infusion/withdrawal pump (Harvard Instruments, U.K.).
The perfusate was centrifuged and re-suspended in DMEM+20% FBS. […] Bone marrow, perfusate and lysed blood were then used for assays outlined below to enumerate HPCs (CFU-HPC), EPCs (CFU-EPC), SPCs (CFU-F).
5×10^4 cells were added to Methocult medium (Stem cell technologies) supplemented with specific cytokines and growth factors to enable formation of CFU-HPC. Mobilized cells were incubated for 11 days before quantification. Further characteristics of CFU-HPC colonies were obtained on day 12, namely the mean number of cells in each colony, and the mean colony area. The mean colony area (mm^2) was determined by image analysis using Scion Image analysis program (NIH). The cell number was determined by diluting colonies grown in Methocult into DMEM (to disperse the methylcellulose) and aspirating the colonies into a single cell suspension before obtaining a cell count.
(§6) The total number of colony forming units mobilized was calculated according to the number of colonies per plate×by the total number of leukocytes mobilized/number of cells seeded.

EPCs [3] = test: Circulating CFU-EPC in blood; type: in vivo, mice; conditions: FIG. 20c
neutrophils [4] = conditions: VEGF pre-treatment 4 days, KC 30 μg/kg i.v., 60 minutes, FIG. 24c
Description: as §5
(§7) Female BALB/c mice were purchased from Harlan (Oxford, United Kingdom). […] 24 hours after the last injection, mice were administered a CXCR4 antagonist (AMD3100, 5 mg/kg i.p), KC (30 μg/kg i.v.) or vehicle and blood was collected via cardiac puncture 60 minutes later for enumeration of circulating leukocyte, HPC, EPC, and stromal progenitor cell levels.
(§8) The perfusate was centrifuged and re-suspended in DMEM+20% FBS. In some experiments citrated blood was obtained via cardiac bleed and lysed for red blood cells. Bone marrow and perfusate cytospins, and blood smears were stained using DiffQuik for the enumeration of mononuclear cells, eosinophils, and neutrophils. Bone marrow, perfusate and lysed blood were then used for assays outlined below to enumerate HPCs (CFU-HPC), EPCs (CFU-EPC), SPCs (CFU-F).

HPCs [5] = conditions: treated over 4 days, compared to controls, FIG. 22a
Description: 24 hours after the last injection, bone marrow was aspirated for the enumeration of a, CFU-HPC bone marrow frequency; b, CFU-EPC bone marrow frequency; and c, CFU-SPC bone marrow frequency.
(§1) Mobilized cells were incubated for 11 days before quantification.

EPCs [6] = test: In situ perfusion of mouse hind limb, CFU-EPC in perfusate; type: in vivo, mice; conditions: for EPC mobilization from the bone marrow: FIG. 21c
neutrophils [7] = test: Leukocyte counts of bone marrow; type: in vivo, mice; conditions: treated 4 days, compared to controls, FIG. 24f
Description: 24 hours later these mice underwent perfusion of the right hind limb. CXCR4 antagonist (AMD3100 0.1 mM, closed bars) or vehicle (PBS, open bars) were then infused directly into the femoral artery for 10 minutes. The hind limb was then perfused for a further 50 minutes to allow collection of a, neutrophils via the femoral vein. […] The hind limb was again perfused for a further 50 minutes to allow b, collection of neutrophils.
The perfusate was centrifuged and re-suspended in DMEM+20% FBS. […] Bone marrow and perfusate cytospins, and blood smears were stained using DiffQuik for the enumeration of mononuclear cells, eosinophils, and neutrophils.

EPCs [8] = test: In vitro chemotaxis of bone marrow EPCs towards SDF-1α; type: cell-based; conditions: bone marrow cells of mice treated 4 days; 30 nM SDF-1α, FIG. 23e, 23g
Description: (§2) Bone marrow was aspirated on day 5 and harvested cells were used to determine a, SDF-1α levels in bone marrow supernatant as determined by ELISA; b, % of bone marrow Lin^− Sca-1^+ cells expressing CXCR4; and c, % of bone marrow CD34^+ VEGFR2^+ cells expressing CXCR4. Harvested cells were also utilized in the following chemotaxis assays: d, number of HPCs; and e, EPCs undergoing chemotaxis towards 30 nM SDF-1α. Cells taken from bone marrow of mice treated with G-CSF (closed bars) or vehicle (PBS, open bars). f, number of HPCs; and g, EPCs undergoing chemotaxis towards 30 nM SDF-1α.

neutrophils [9] = conditions: VEGF-treated mice, KC 30 nM, FIG. 24e
Description: Bone marrow-derived neutrophils were tested for migration towards KC (30 nM) using 3 μm pore sized transwell chemotaxis plates as previously described (Wengner et al., 2008). To measure HPC and EPC migration towards SDF-1α, murine bone marrow cells (2×10^6 cells) were placed in the upper chamber of transwell inserts (5 μm pore size Corning). These in turn were placed in individual wells of a 24 well cell culture plate with 30 nM SDF-1α added. Chambers were incubated for 4 hours at 37° C. and migrated cells were then placed in methocult or EPC colony media as described above for the enumeration of CFU-HPC and CFU-EPC respectively.

HPCs [10] = test: In vitro chemotaxis of bone marrow HPCs towards SDF-1α; type: cell-based; conditions: bone marrow cells of mice treated 4 days; 30 nM SDF-1α, FIG. 23d, 23f
Description: as §2

[11] = tested on: endothelial progenitor cells (EPC); test: Example 1: EPC mobilisation, hind limb bone marrow perfusion and circulating blood, CFU-EPC assay; conditions: G-CSF or VEGF 2.5 μg on 4 consecutive days, then AMD3100; perfusate and blood, FIGS. 5-8
Description: 24 hours after the last injection, mice were administered a CXCR4 antagonist (AMD3100, 5 mg/kg i.p), or vehicle and blood was collected via cardiac puncture 1 hour later for enumeration of circulating leukocyte, HPC, EPC and MSC levels.
On day 5, mice were anaesthetized with urethane (25% 0.2 ml i.p.) and the femoral artery and vein exposed. The hind limb was isolated by occlusion of the external iliac artery, superficial epigastric and muscular branch with 5/0 braided silk suture. Polyethylene cannulae (0.61 mm OD, Portex, London, UK) were immediately inserted into the femoral artery and vein and tied in place with 5/0 braided silk suture. Perfusion buffer (modified Krebs-Ringer bicarbonate buffer) at 37° C. was infused (0.15 ml/min) via the arterial cannula and removed from the venous cannula using a Minipuls peristaltic pump (Anachem, Luton, UK). The hind limb was perfused for an initial 10 minutes to remove remaining blood from the vasculature and then perfused for a further 60 min with vehicle alone or AMD3100, a CXCR4 antagonist (0.1 mM, Sigma UK) infused over the first 10 minutes using an infusion/withdrawal pump (Harvard Instruments, U.K.).
The perfusate was collected and centrifuged and the cell pellet re-suspended in Dulbecco's modified eagles medium (DMEM) with 20% fetal bovine serum (FBS). A total cell count was performed before the perfusate was lysed for red blood cells, re-suspended again in DMEM (20% FBS) and used for assays outlined below to enumerate haematopoietic progenitor cells (CFU-HPC), endothelial progenitor cells (CFU-EPC), and leukocyte populations.
In some experiments blood was taken to enumerate HPCs, EPCs and leukocytes. A total cell count was performed on citrated blood before being lysed for red blood cells and re-suspended in DMEM (20% FBS).
Assay was performed in duplicate. Dishes were incubated for 7 days before media was changed, and then incubated for a further 14 days before the enumeration of late outgrowth endothelial progenitor cells. Early outgrowth endothelial progenitor cells were enumerated on day 5.
In each of the above assays, the total number of colony forming units mobilised is calculated according to the number of colonies per plate×by the total number of leukocytes mobilized/number of cells seeded.
Mice were anaesthetised and the femoral artery and vein was cannulated such that the femoral bone marrow could be perfused (Martin et al, (2006) Br. J. Haem. 134: 326-329). […]
Mice were injected i.p. with the CXCR4 antagonist, AMD3100, (or vehicle control) and 1 h later the mice were killed. Blood was collected by cardiac puncture and stem cell numbers in the blood were determined. […]

HPC colonies = conditions: colonies grown from bone marrow of treated mice, FIGS. 25a, 25b
Description: a, number of cells per colony; and b, mean colony area; of CFU-HPC grown for […] in methocult.
as §1

SPCs = test: CFU-SPC bone marrow frequency; type: in vivo, mice; conditions: treated over 4 days, compared to controls, FIG. 22c
Description: as §7, §8
5×10^5 cells were added to Mesencult media including supplements (Stemcell Technologies). Dishes were incubated for 7 days before media was changed, and then incubated for a further 14 days before the enumeration of SPC colonies (CFU-F).

Lin^− Sca-1^+ HPCs = test: PI staining, cell cycle status of Lin- Sca-1+ HPCs; type: in vivo, mice; conditions: treated 4 days, FIG. 25c
Description: (§3) For flow cytometric analysis, cells were re-suspended in FACS buffer. To identify neutrophils in the bone marrow, surface expression of the granulocyte marker Ly-6G/Ly6C (Gr-1) was determined. Neutrophils were identified as Gr-1^high positive cells with a characteristic high side scatter profile. HPCs residing in the BM were selected as being negative for lineage (Lin^−) markers: CD3e, CD11b, CD45R, Ly-76, and Gr-1 and positive for Sca-1 (Lin^− Sca-1^+ cells) (Gerber et al., 2002; Uchida, et al., 1997). EPCs residing in the BM were selected as being positive for both CD34 and VEGFR2 (CD34^+ VEGFR2^+ cells) (Asahara et al., 1997; Yoon et al., 2005). […] Samples were then washed and then quantified on a FACSAria cell sorter (BD Biosciences, Oxford, United Kingdom) and analysed using FACSDiva software.
(§4) Lin^− Sca-1^+ cells and CD34^+ VEGFR2^+ cells were analysed to determine their cell cycling status using a propidium iodide (PI) stain. […] A dotplot of PI-Width against PI-Area was recorded. Aggregates of cells were detected as cells having a larger PI-W profile and were not included in the gate. […] To calculate the percentage of cells undergoing active cell cycling, a marker was set to exclude the G0/G1 peak and the percentage of cells in S/G2/M was calculated.

CD34^+ VEGFR2^+ EPCs = test: PI staining, cell cycle status of CD34+ VEGFR2+ EPCs; type: in vivo, mice; conditions: treated 4 days, FIG. 25d
Description: as §3, §4

HPCs [12] = test: Circulating CFU-HPC in blood; conditions: agent alone (AMD3100 5 mg/kg i.p., blood at 60 min; G-CSF or VEGF once daily for 4 days), FIG. 20b
Description: a, Experimental protocol. […] 24 hours after the last injection, mice were administered a CXCR4 antagonist (AMD3100 5 mg/kg i.p, closed bars) or vehicle (PBS, open bars). 60 minutes later, blood was taken for analysis of circulating: b, CFU-HPC; c, CFU-EPC; and d, CFU-SPC. CFU-HPC, CFU-EPC, and CFU-SPC are shown as number of colonies per ml blood. n=5-8 mice per group. Data: means±s.e.m. *: P<0.05, **: P<0.01, ***: P<0.001 between selected groups.
24 hours after the last injection, mice were administered a CXCR4 antagonist (AMD3100, 5 mg/kg i.p), KC (30 μg/kg i.v.) or vehicle and blood was collected via cardiac puncture 60 minutes later for enumeration of circulating leukocyte, HPC, EPC, and stromal progenitor cell levels.
In some experiments citrated blood was obtained via cardiac bleed and lysed for red blood cells. […] Bone marrow, perfusate and lysed blood were then used for assays outlined below to enumerate HPCs (CFU-HPC), EPCs (CFU-EPC), SPCs (CFU-F).
5×10^4 cells were added to Methocult medium (Stem cell technologies) supplemented with specific cytokines and growth factors to enable formation of CFU-HPC. Mobilized cells were incubated for 11 days before quantification.
as §6

[13] = growth factor pre-treatment 4 days, then CXCR4 antagonist infused

VEGF
suppression of neutrophil mobilization in response to the CXCR4 antagonist, acute administration (neutrophils [1]): effect was not seen
reduction of HPC mobilization induced by infusion of the CXCR4 antagonist (HPCs [2]; VEGF pre-treatment 4 days, then CXCR4 antagonist infused): 75%
HPC mobilization from the bone marrow (HPCs [2]; agent alone (CXCR4 antagonist 0.1 mM infused 10 min; G-CSF or VEGF pre-treatment 4 days), perfusate over 1 hour): HPCs and SPCs were not mobilized
HPC mobilization, acute administration (HPCs [2]; growth factor (50 nM) infused into femoral artery for 10 minutes, alone, FIG. 31a): mobilized both HPCs and EPCs
HPC mobilization from the bone marrow (HPCs [2]; [13]): almost completely suppressed HPC mobilization
circulating numbers of EPCs (EPCs [3]; agent alone (AMD3100 5 mg/kg i.p., blood at 60 min; G-CSF or VEGF once daily for 4 days)): increase in EPC numbers
circulating numbers of EPCs (EPCs [3]; growth factor pre-treatment over 4 days, then CXCR4 antagonist AMD3100 5 mg/kg i.p.): more than additive increase in EPC numbers
KC-induced mobilization of neutrophils in vivo (neutrophils [4]): completely abrogated
frequency of HPCs in the bone marrow (HPCs [5]): no difference was observed
EPC mobilization from the bone marrow (EPCs [6]; agent alone (CXCR4 antagonist 0.1 mM infused 10 min; G-CSF or VEGF pre-treatment 4 days)): significant EPC mobilization
EPC mobilization, acute administration (EPCs [6]; growth factor (50 nM) infused into femoral artery for 10 minutes, alone, FIG. 31b): mobilized both HPCs and EPCs
EPC mobilization from the bone marrow (EPCs [6]; [13]): an additive effect was observed for EPC mobilization
numbers of neutrophils in the bone marrow (neutrophils [7]): significant reduction in absolute numbers of mature neutrophils
EPC chemotaxis towards SDF-1α (EPCs [8]): had no effect on EPC migration
ability of bone marrow neutrophils to migrate towards KC in vitro (neutrophils [9]): did not affect
HPC chemotaxis towards SDF-1α (HPCs [10]): abolished the ability of HPCs to migrate to SDF-1α
EPC mobilization [11]: additive effect of AMD3100 and VEGF with respect to EPC mobilization
cellular content and size of HPC colonies (HPC colonies): significant increase in both their cellular content and size
frequency/number of SPCs in the bone marrow (SPCs): no difference was observed
percentage of Lin- Sca-1+ HPCs in S/G2/M phase of the cell-cycle (Lin^− Sca-1^+ HPCs): significant increase in the percentage of BM-HPCs
percentage of CD34+ VEGFR2+ EPCs in S/G2/M phase of the cell-cycle (CD34^+ VEGFR2^+ EPCs): did not alter the percentage of CD34^+ VEGFR2^+ EPCs in the S/G2/M phase
circulating numbers of HPCs (HPCs [12]): did not increase circulating numbers of HPCs
